As a reminder, the IC50 is the concentration that gives 50% inhibition. What is called pIC50 is −log10 of the IC50, conventionally taken in molar units.

Molecules are shown by their SMILES. pIC50: −log10 of the molar value. Structures can show the parent of a compound that is named as a salt. Where two headings read alike, the source gives them in different places.

These results are taken from patent US20210330611A1, “THERAPY FOR NEUROLOGICAL DISEASES/DISORDERS” (priority 2020, published 2021).

The test system of data set [1] is fibrin-induced microglia activation. The data set can be described thus: Image-based assay of fibrin-induced microglia activation (HTS and dose response). The following applies: for IC50 / inhibition at 10 µM / pIC50: Rattus norvegicus, Microglia; for IC50: read-out: Fibrin IC50 (uM) (Suppl. Table 7); for inhibition at 10 µM: primary microglia HTS, fibrin stimulation, increased cell size (>800 μm^2) as marker of activation, read-out: Fibrin % inhibition; for pIC50: read-out: Fibrin IC50. It counts as cell-based, rat.

Data set [2] concerns LPS-induced microglia activation. The data set can be described thus: Image-based assay of LPS-induced microglia activation (HTS and dose response). It counts as cell-based, rat. As to conditions: Rattus norvegicus, Microglia; for pIC50: read-out: LPS IC50; for inhibition at 10 µM: primary microglia HTS, LPS stimulation, increased cell size (>800 μm^2) as marker of activation, read-out: LPS % inhibition; for IC50: read-out: LPS IC50 (uM) (Suppl. Table 7).

For data set [3], the system named is fibrin- and LPS-induced microglia activation. The data set can be described thus: cells. The following applies: for inhibition at 10 µM: Rattus norvegicus. It counts as cell-based, rat.
Data set [4] relates to primary rat microglia. The following applies: rat.
The nature of data set [5]: in vitro. The following applies: rat, Cell Toxicity IC50 (uM) [cFib assay].
A short description of data set [6]: in vitro. The following applies: rat.
Data set [7] has as its system primary rat microglia. The experiment in a line: Cell toxicity (dead cells, size <150 μm2) in LPS assay. As to conditions: for IC50: read-out: Cell Toxicity IC50 (uM) [LPS assay], LPS assay; for LPS % cell toxicity: primary microglia HTS, LPS stimulation, decreased size (<150 μm^2) as marker of toxicity.
Data set [8] deals with primary rat microglia. The experiment in a line: Cell toxicity (dead cells, size <150 μm2) in coated fibrin (cFib) assay.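 As to Fibrin % cell toxicity: share of dead cells sized under 150 µm2 at 10 µM in fibrin-stimulated microglia HTS.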 As to conditions: primary microglia HTS, fibrin stimulation; decreased size (<150 μm^2) as marker of toxicity.
[9] abbreviates: 48 h, Table 1, dose response 0.001-20 μM, triplicates, primary rat microglia, 48 h.
[10] abbreviates: LPS-induced microglia activation, dose response.
Setting [11] is: dose response, LPS-induced microglia activation.
Where [12] appears, read: HTS of 1907 compounds, quadrant by fibrin and LPS inhibition.
The mark [13] stands for this setting: Microglia, Table 3, read-out: Cherry-picked Hit (Suppl. Table 7).
[14] abbreviates: Microglia, HTS hit classification, read-out: Hit.
Setting [15] is: quadrant by fibrin and LPS inhibition in HTS of 1907 compounds.
The mark [16] stands for this setting: dose response, fibrin-induced microglia activation.
Where [17] appears, read: fibrin-induced microglia activation, dose response.
[18] abbreviates: hit classification in microglia HTS, read-out: Cherry-picked Hit (Suppl. Table 7).

Regarding `CC(=O)O[C@@]12CO[C@@H]1C[C@H](O)[C@@]1(C)C(=O)[C@H](O)C3=C(C)[C@@H](OC(=O)[C@H](O)[C@@H](NC(=O)OC(C)(C)C)c4ccccc4)C[C@@](O)([C@@H](OC(=O)c4ccccc4)[C@H]21)C3(C)C` [Docetaxel, reference compound], the concentration for half-maximal inhibition (IC50) is 0.002 µM in data set [1] (Table 3); 0.002 µM in data set [1] (Table 6); above 20 µM in data set [2] (setting [10]); above 20 µM in data set [2] (Table 3); above 20 µM in data set [2] (Table 6); above 20 µM in the data set “in vitro [5]” (Table 3). Moreover, the IC50 was above 20 µM in the data set “in vitro [5]” (cFib assay); above 20 µM in the data set “in vitro [5]” (cFib assay, Table 6); above 20 µM in the data set with primary rat microglia [7]; above 20 µM in the data set with primary rat microglia [7] (Table 6). Further, the inhibition at 10 µM in data set [1] is 64%; in data set [2] (48 h), 32%; in data set [3] (setting [13]), above 50%; in data set [3] (setting [14]), above 50%. Further, the “Fibrin Selectivity (LOG10)” value in data set [1] (fibrin vs LPS, LOG10, Table 6) is 3.99. In addition, the “Fibrin Selectivity” value in data set [1] (fibrin vs LPS, Table 6) came to 9814. The pIC50 (in data set [2] (setting [9]); in data set [2] (setting [11]); in “in vitro [6]”) was below 4.70 in each case. Besides, the “Quadrant (FIG. 5b)” value in data set [3] (setting [12]) is “Q3”; in data set [3] (Table 1, screen at 10 μM) it was “Q3”; in data set [3] (Table 3, screen at 10 μM), “Q3”; in data set [3] (microglia HTS, Table 6) it was “Q3”; in data set [3] (setting [15]), “Q3”. Besides, in the data set on primary rat microglia [4], the “LPS % cell toxicity” value is 1%.

For `COc1ccc(-n2nc(CCC(=O)N(C)O)cc2-c2ccc(Cl)cc2)cc1` [Tepoxalin, reference compound], the “Fibrin Selectivity” value in data set [1] stood at 6. In addition, in data set [1], the “Fibrin Selectivity (LOG10)” value is given as 0.75. Also, the pIC50 was 5.52 in data set [1] (setting [9]); 5.52 in data set [1] (setting [16]); 4.74 in data set [2] (setting [9]); 4.74 in data set [2] (setting [11]); below 4.70 in “in vitro [6]”. The IC50 is 3 µM in data set [1] (Table 3); 3 µM in data set [1] (setting [17]); 18 µM in data set [2] (setting [10]); 18 µM in data set [2] (Table 3); above 20 µM in the data set “in vitro [5]” (Table 3); above 20 µM in “in vitro [5]” (cFib assay). In the data set with primary rat microglia [7], the IC50 was above 20 µM. For the same compound, the inhibition at 10 µM in data set [1] was 76%; in data set [2] (48 h), 66%; in data set [3] (setting [13]), above 50%; in data set [3] (setting [14]) it was above 50%. Moreover, the “Quadrant (FIG. 5b)” value in data set [3] (setting [12]) is on record as “Q2”; in data set [3] (Table 1, screen at 10 μM), “Q2”; in data set [3] (Table 3, screen at 10 μM) it was “Q2”; in data set [3] (setting [15]), “Q2”. Moreover, the “LPS % cell toxicity” value in the data set with primary rat microglia [7] is 2%. For the same compound, the “Fibrin % cell toxicity” value in the data set with primary rat microglia [8] is 1%.

As for `c1ccc2[nH]c(-c3cscn3)nc2c1` [Thiabendazole, reference compound], the pIC50 (in data set [1] (setting [9]); in data set [1] (setting [16]); in data set [2] (setting [9]); in data set [2] (setting [11]); in the data set “in vitro [6]”) was below 4.70 throughout. Besides, the IC50 (in data set [1] (setting [17]); in data set [2] (setting [10]); in “in vitro [5]” (cFib assay)) was above 20 µM throughout. The inhibition at 10 µM in data set [1] was 58%; in data set [2] (48 h), 62%; in data set [3] (setting [14]), above 50%; in data set [3] (setting [18]), above 50%. Besides, the “Quadrant (FIG. 5b)” value is reported as “Q2” in data set [3] (setting [12]); “Q2” in data set [3] (Table 1, screen at 10 μM); “Q2” in data set [3] (setting [15]). In the data set on primary rat microglia [7], the “LPS % cell toxicity” value is given as 1%. In addition, the “Fibrin % cell toxicity” value in the data set with primary rat microglia [8] is 1%.

On to `Cc1ccc(S(=O)(=O)NC(=O)NN2CCCCCC2)cc1` [Tolazamide, reference compound], for which, in data set [1], the “Fibrin Selectivity” value is recorded as 2. For the same compound, the “Fibrin Selectivity (LOG10)” value in data set [1] is 0.23. Further, the pIC50 was 4.92 in data set [1] (setting [9]); 4.92 in data set [1] (setting [16]); below 4.70 in data set [2] (setting [9]); below 4.70 in data set [2] (setting [11]); below 4.70 in “in vitro [6]”. Also, the IC50 in data set [1] (Table 3) was 12 µM; in data set [1] (setting [17]), 12 µM; in data set [2] (setting [10]), above 20 µM; in data set [2] (Table 3), above 20 µM; in “in vitro [5]” (Table 3), above 20 µM; in “in vitro [5]” (cFib assay) it was above 20 µM. Besides, the half-maximal inhibitory concentration (IC50) with primary rat microglia [7] is above 20 µM. For the same compound, the inhibition at 10 µM was 88% in data set [1], 42% in data set [2] (48 h), above 50% in data set [3] (setting [13]) and above 50% in data set [3] (setting [14]). Besides, the “Quadrant (FIG. 5b)” value is given as “Q3” in data set [3] (setting [12]); “Q3” in data set [3] (Table 1, screen at 10 μM); “Q3” in data set [3] (Table 3, screen at 10 μM); “Q3” in data set [3] (setting [15]). In addition, the “LPS % cell toxicity” value in the data set with primary rat microglia [7] was 0%. Besides, the “Fibrin % cell toxicity” value in the data set on primary rat microglia [8] worked out at 1%.

Consider `Cc1cccc(N(C)C(=S)Oc2ccc3ccccc3c2)c1` [Tolnaftate, reference compound], for which the negative-log IC50 (pIC50) is 5.70 in data set [1] (setting [9]), 5.70 in data set [1] (setting [16]) and below 4.70 in the data set “in vitro [6]”. For the same compound, the IC50 in data set [1] (Table 3) is 2 µM; in data set [1] (setting [17]), 2 µM; in the data set “in vitro [5]” (Table 3), above 20 µM; in “in vitro [5]” (cFib assay), above 20 µM; with primary rat microglia [7], above 20 µM. In addition, the inhibition at 10 µM in data set [1] was 76%; in data set [2] (48 h) it was 60%; in data set [3] (setting [13]), above 50%; in data set [3] (setting [14]) it was above 50%. Besides, the “Quadrant (FIG. 5b)” value is “Q2” in data set [3] (setting [12]); “Q2” in data set [3] (Table 1, screen at 10 μM); “Q2” in data set [3] (Table 3, screen at 10 μM); “Q2” in data set [3] (setting [15]). The “LPS % cell toxicity” value with primary rat microglia [7] came to 1%. The “Fibrin % cell toxicity” value in the data set on primary rat microglia [8] amounted to 1%.

With `Cc1cc(-n2c(=O)[nH]c(=O)n(C)c2=O)ccc1Oc1ccc(SC(F)(F)F)cc1` [Toltrazuril, reference compound], the pIC50 (in data set [1] (setting [9]); in data set [1] (setting [16]); in data set [2] (setting [9]); in data set [2] (setting [11]); in “in vitro [6]”) was below 4.70 throughout. For the same compound, the IC50 (in data set [1] (setting [17]); in data set [2] (setting [10]); in “in vitro [5]” (cFib assay)) was above 20 µM throughout. Moreover, the inhibition at 10 µM in data set [1] was 104%; in data set [2] (48 h), 90%; in data set [3] (setting [14]) it was above 50%; in data set [3] (setting [18]), above 50%. In addition, the “Quadrant (FIG. 5b)” value in data set [3] (setting [12]) is “Q2”; in data set [3] (Table 1, screen at 10 μM) it was “Q2”; in data set [3] (setting [15]) it was “Q2”. Also, the “LPS % cell toxicity” value in the data set on primary rat microglia [7] is reported as 2%. Moreover, in the data set on primary rat microglia [8], the “Fibrin % cell toxicity” value came to 3%.

With `Cc1cccc(C)c1N=C1NCCCS1` [Xylazine hydrochloride, reference compound], the “Fibrin Selectivity” value in data set [1] was determined as 5. Besides, the “Fibrin Selectivity (LOG10)” value in data set [1] is 0.72. The negative logarithm of the IC50 (pIC50) was 5.70 in data set [1] (setting [9]); 5.70 in data set [1] (setting [16]); 5.10 in data set [2] (setting [9]); 5.10 in data set [2] (setting [11]); below 4.70 in “in vitro [6]”. Further, the IC50 in data set [1] (Table 3) was 2 µM; in data set [1] (setting [17]), 2 µM; in data set [2] (setting [10]), 8 µM; in data set [2] (Table 3) it was 8 µM; in “in vitro [5]” (Table 3), above 20 µM; in the data set “in vitro [5]” (cFib assay), above 20 µM. For the same compound, the IC50 with primary rat microglia [7] is above 20 µM. The inhibition at 10 µM in data set [1] was 102%; in data set [2] (48 h), 72%; in data set [3] (setting [13]), above 50%; in data set [3] (setting [14]), above 50%. In addition, the “Quadrant (FIG. 5b)” value in data set [3] (setting [12]) is on record as “Q2”; in data set [3] (Table 1, screen at 10 μM), “Q2”; in data set [3] (Table 3, screen at 10 μM), “Q2”; in data set [3] (setting [15]) it was “Q2”. In the data set with primary rat microglia [7], the “LPS % cell toxicity” value was 2%. In addition, the “Fibrin % cell toxicity” value in the data set on primary rat microglia [8] amounted to 1%.
